From US20240116910A1, “Heterocycles as WIP1 Inhibitors” (PMV Pharmaceuticals, Inc., priority 2022, published 2024)

Target: recombinant His-tag Wip1(2-420) protein (amino acids #2-420) (Homo sapiens (Human), UniProt O15297)
Assay: Wip1(2-420) phosphatase enzyme FDP assay
Type: biochemical
Details: fluorescein diphosphate (FDP) substrate, RT 2 hours, fluorescence Ex485/Em535; read-out: WIP1 (Truncated 2-420) FDP Assay: IC50

Chain of recombinant His-tag Wip1(2-420) protein (amino acids #2-420) (O15297 2-420): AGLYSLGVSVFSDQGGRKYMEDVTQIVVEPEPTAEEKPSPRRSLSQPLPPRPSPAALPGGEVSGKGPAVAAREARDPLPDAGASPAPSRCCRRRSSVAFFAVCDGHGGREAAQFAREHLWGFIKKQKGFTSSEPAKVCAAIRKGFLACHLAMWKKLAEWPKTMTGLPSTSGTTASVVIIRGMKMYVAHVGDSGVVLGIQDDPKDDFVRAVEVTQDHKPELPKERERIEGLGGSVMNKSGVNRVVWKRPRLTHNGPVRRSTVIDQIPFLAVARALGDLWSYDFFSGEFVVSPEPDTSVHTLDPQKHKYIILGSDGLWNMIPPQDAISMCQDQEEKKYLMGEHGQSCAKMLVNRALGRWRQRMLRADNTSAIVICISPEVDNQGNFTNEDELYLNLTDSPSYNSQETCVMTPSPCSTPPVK

Structure (SMILES)	IC50 [nM]
COC[C@@H](Nc1cc(Cl)cnc1C)c1ccc(C(=O)N[C@@H](CC2CCCC2)C(=O)NC2CC2)s1 [Compound 158, (2S)-2-({5-[(1R)-1-[(5-chloro-2-methylpyridin-3-yl)amino]-2-methoxyethyl]thiophen-2-yl}formamido)-3-cyclopentyl-N-cyclopropylpropanamide]	1000
COC[C@H](Nc1cc(Cl)cnc1C)c1ccc(C(=O)N[C@@H](CC2CCCC2)C(=O)NC2CC2)s1 [Compound 159, (2S)-2-({5-[(1S)-1-[(5-chloro-2-methylpyridin-3-yl)amino]-2-methoxyethyl]thiophen-2-yl}formamido)-3-cyclopentyl-N-cyclopropylpropanamide]	13
Cc1ncc(Cl)cc1N[C@@H](C)c1ccc(C(=O)N[C@@H](CCC(C)(C)C)C(=O)NC2CC2)s1 [Compound 161, (2S)-2-({5-[(1S)-1-[(5-chloro-2-methylpyridin-3-yl)amino]ethyl]thiophen-2-yl}formamido)-N-cyclopropyl-5,5-dimethylhexanamide]	11
Cc1ncc(Cl)cc1N[C@H](Cn1cccn1)c1ccc(C(=O)N[C@@H](CC2CCCC2)C(=O)NC2CC2)s1 [Compound 165, (2S)-2-({5-[(1R)-1-[(5-chloro-2-methylpyridin-3-yl)amino]-2-(1H-pyrazol-1-yl)ethyl]thiophen-2-yl}formamido)-3-cyclopentyl-N-cyclopropylpropanamide]	378
Cc1ncc(Cl)cc1N[C@@H](C)c1ccc(C(=O)N[C@@H](CC2CCCC2)C(=O)Nc2ccc3c(c2)N(C)CCC3)s1 [Compound 167, (2S)-2-({5-[(1S)-1-[(5-chloro-2-methylpyridin-3-yl)amino]ethyl]thiophen-2-yl}formamido)-3-cyclopentyl-N-(1-methyl-1,2,3,4-tetrahydroquinolin-7-yl)propanamide]	11
Cc1ncc(Cl)cc1N[C@H](Cc1cnn(C)c1)c1ccc(C(=O)N[C@@H](CC2CCCC2)C(=O)NC2CC2)s1 [Compound 170, (2S)-2-({5-[(1R)-1-[(5-chloro-2-methylpyridin-3-yl)amino]-2-(1-methyl-1H-pyrazol-4-yl)ethyl]thiophen-2-yl}formamido)-3-cyclopentyl-N-cyclopropylpropanamide]	217
Cc1ncc(Cl)cc1N[C@@H](C)c1ccc(C(=O)N[C@H](C(=O)NC2CC2)C2CCCCC2)s1 [Compound 174, (2S)-2-({5-[(1S)-1-[(5-chloro-2-methylpyridin-3-yl)amino]ethyl]thiophen-2-yl}formamido)-2-cyclohexyl-N-cyclopropylacetamide]	37
COCC(Nc1cc(Cl)cnc1C)c1ccc(C(=O)N[C@@H](CC2CCCC2)C(=O)NC2CC2)s1 (stereo partly drawn) [Compound 176, (2S)-2-[(5-{1-[(5-chloro-2-methylpyridin-3-yl)amino]-2-methoxyethyl}thiophen-2-yl)formamido]-3-cyclopentyl-N-cyclopropylpropanamide]	21
Cc1ncc(Cl)cc1N[C@@H](c1ccc(C(=O)N[C@@H](CC2CCCC2)C(=O)NC2CC2)s1)C(F)(F)F [Compound 184, (2S)-2-({5-[(1R)-1-[(5-chloro-2-methylpyridin-3-yl)amino]-2,2,2-trifluoroethyl]thiophen-2-yl}formamido)-3-cyclopentyl-N-cyclopropylpropanamide]	131
Cc1ncc(Cl)cc1N[C@H](c1ccc(C(=O)N[C@@H](CC2CCCC2)C(=O)NC2CC2)s1)C(F)(F)F [Compound 185, (2S)-2-({5-[(1S)-1-[(5-chloro-2-methylpyridin-3-yl)amino]-2,2,2-trifluoroethyl]thiophen-2-yl}formamido)-3-cyclopentyl-N-cyclopropylpropanamide]	61
Cc1ncc(Cl)cc1N[C@@H](c1ccc(C(=O)N[C@@H](CC2CCCC2)C(=O)NC23CC(C2)C3)s1)C(F)(F)F [Compound 186, (2S)-N-{bicyclo[1.1.1]pentan-1-yl}-2-({5-[(1R)-1-[(5-chloro-2-methylpyridin-3-yl)amino]-2,2,2-trifluoroethyl]thiophen-2-yl}formamido)-3-cyclopentylpropanamide]	195
Cc1ncc(Cl)cc1N[C@H](c1ccc(C(=O)N[C@@H](CC2CCCC2)C(=O)NC23CC(C2)C3)s1)C(F)(F)F [Compound 187, (2S)-N-{bicyclo[1.1.1]pentan-1-yl}-2-({5-[(1S)-1-[(5-chloro-2-methylpyridin-3-yl)amino]-2,2,2-trifluoroethyl]thiophen-2-yl}formamido)-3-cyclopentylpropanamide]	37

The next compounds have a lower IC50 than those just listed; values first:

IC50 [nM]	Structure (SMILES)
10	Cc1ncc(Cl)cc1N[C@@H](C)c1ccc(C(=O)N[C@@H](CC2CCCC2)C(=O)Nc2ccn(C)n2)s1 [Compound 154, (2S)-2-({5-[(1S)-1-[(5-chloro-2-methylpyridin-3-yl)amino]ethyl]thiophen-2-yl}formamido)-3-cyclopentyl-N-(1-methyl-1H-pyrazol-3-yl)propanamide]
10	CC(Nc1cc(Cl)cnc1C(N)=O)c1ccc(C(=O)N[C@@H](CC2CCCC2)C(=O)NC23CC(C2)C3)s1 (stereo partly drawn) [Compound 172, 3-{[1-(5-{[(1S)-1-({bicyclo[1.1.1]pentan-1-yl}carbamoyl)-2-cyclopentylethyl]carbamoyl}thiophen-2-yl)ethyl]amino}-5-chloropyridine-2-carboxamide]
9	Cc1cc(NC(=O)[C@H](CCC(C)(C)C)NC(=O)c2ccc([C@H](C)Nc3cc(Cl)cnc3C)s2)ccn1 [Compound 157, (2S)-2-({5-[(1S)-1-[(5-chloro-2-methylpyridin-3-yl)amino]ethyl]thiophen-2-yl}formamido)-5,5-dimethyl-N-(2-methylpyridin-4-yl)hexanamide]
9	Cc1ncc(Cl)cc1N[C@@H](C)c1ccc(C(=O)N[C@@H](CC2CCCC2)C(=O)NC2CCc3ncccc3C2)s1 (stereo partly drawn) [Compound 169, (2S)-2-({5-[(1S)-1-[(5-chloro-2-methylpyridin-3-yl)amino]ethyl]thiophen-2-yl}formamido)-3-cyclopentyl-N-(5,6,7,8-tetrahydroquinolin-6-yl)propanamide]
8	Cc1ncc(Cl)cc1N[C@@H](C)c1ccc(C(=O)N[C@@H](CC2CCCC2)C(=O)Nc2cc(N)ccn2)s1 [Compound 150, (2S)-N-(4-aminopyridin-2-yl)-2-({5-[(1S)-1-[(5-chloro-2-methylpyridin-3-yl)amino]ethyl]thiophen-2-yl}formamido)-3-cyclopentylpropanamide]
8	CC(Nc1cc(Cl)cnc1C(N)=O)c1ccc(C(=O)N[C@@H](CC2CCCC2)C(=O)Nc2cnn(C)c2)s1 (stereo partly drawn) [Compound 173, 5-chloro-3-{[1-(5-{[(1S)-2-cyclopentyl-1-[(1-methyl-1H-pyrazol-4-yl)carbamoyl]ethyl]carbamoyl}thiophen-2-yl)ethyl]amino}pyridine-2-carboxamide]
7	Cc1ncc(Cl)cc1N[C@@H](C)c1ccc(C(=O)N[C@@H](CC2CCCC2)C(=O)Nc2cc[nH]n2)s1 [Compound 155, (2S)-2-({5-[(1S)-1-[(5-chloro-2-methylpyridin-3-yl)amino]ethyl]thiophen-2-yl}formamido)-3-cyclopentyl-N-(1H-pyrazol-3-yl)propanamide]
7	Cc1ncc(Cl)cc1N[C@@H](Cn1cccn1)c1ccc(C(=O)N[C@@H](CC2CCCC2)C(=O)NC2CC2)s1 [Compound 166, (2S)-2-({5-[(1S)-1-[(5-chloro-2-methylpyridin-3-yl)amino]-2-(1H-pyrazol-1-yl)ethyl]thiophen-2-yl}formamido)-3-cyclopentyl-N-cyclopropylpropanamide]
6	Cc1ncc(Cl)cc1N[C@@H](C)c1ccc(C(=O)N[C@@H](CC2CCCC2)C(=O)Nc2cnn(C(C)(C)C)c2)s1 [Compound 149, (2S)-N-(1-tert-butyl-1H-pyrazol-4-yl)-2-({5-[(1S)-1-[(5-chloro-2-methylpyridin-3-yl)amino]ethyl]thiophen-2-yl}formamido)-3-cyclopentylpropanamide]
6	Cc1ncc(Cl)cc1N[C@@H](C)c1ccc(C(=O)N[C@@H](CC2CCCC2)C(=O)Nc2cnn(CCN(C)C)c2)s1 [Compound 151, (2S)-2-({5-[(1S)-1-[(5-chloro-2-methylpyridin-3-yl)amino]ethyl]thiophen-2-yl}formamido)-3-cyclopentyl-N-{1-[2-(dimethylamino)ethyl]-1H-pyrazol-4-yl}propanamide]
6	Cc1ncc(Cl)cc1N[C@@H](C)c1ccc(C(=O)N[C@@H](CC2CCCC2)C(=O)Nc2cnn(C3CCN(C)CC3)c2)s1 [Compound 152, (2S)-2-({5-[(1S)-1-[(5-chloro-2-methylpyridin-3-yl)amino]ethyl]thiophen-2-yl}formamido)-3-cyclopentyl-N-[1-(1-methylpiperidin-4-yl)-1H-pyrazol-4-yl]propanamide]
5	Cc1ncc(Cl)cc1N[C@@H](C)c1ccc(C(=O)N[C@@H](CC2CCCC2)C(=O)Nc2ccc(C(N)=O)nc2)s1 [Compound 153, 5-[(2S)-2-({5-[(1S)-1-[(5-chloro-2-methylpyridin-3-yl)amino]ethyl]thiophen-2-yl}formamido)-3-cyclopentylpropanamido]pyridine-2-carboxamide]
5	Cc1ncc(Cl)cc1N[C@@H](C)c1ccc(C(=O)N[C@@H](CC2CCCC2)C(=O)Nc2ccc3ncc(F)cc3c2)s1 [Compound 178, (2S)-2-({5-[(1S)-1-[(5-chloro-2-methylpyridin-3-yl)amino]ethyl]thiophen-2-yl}formamido)-3-cyclopentyl-N-(3-fluoroquinolin-6-yl)propanamide]
4	Cc1ncc(Cl)cc1N[C@@H](C)c1ccc(C(=O)N[C@@H](CC2CC3CC3C2)C(=O)Nc2cnn(C)c2)s1 (stereo partly drawn) [Compound 179, (2S)-3-{bicyclo[3.1.0]hexan-3-yl}-2-({5-[(1S)-1-[(5-chloro-2-methylpyridin-3-yl)amino]ethyl]thiophen-2-yl}formamido)-N-(1-methyl-1H-pyrazol-4-yl)propanamide]
4	COc1cnc2ccc(NC(=O)[C@H](CC3CCCC3)NC(=O)c3ccc([C@H](C)Nc4cc(Cl)cnc4C)s3)cc2c1 [Compound 180, (2S)-2-({5-[(1S)-1-[(5-chloro-2-methylpyridin-3-yl)amino]ethyl]thiophen-2-yl}formamido)-3-cyclopentyl-N-(3-methoxyquinolin-6-yl)propanamide]
